The record followed here is patent US20230227427A1, “IL-17A MODULATORS” (SANOFI, priority 2010, published 2023).

For the test, the target named is T1, human recombinant IL-17A (Homo sapiens, UniProt Q16552).
T1 construct: purchased R&D Systems 7955-IL/CF
T1 sequence (Q16552 24-155): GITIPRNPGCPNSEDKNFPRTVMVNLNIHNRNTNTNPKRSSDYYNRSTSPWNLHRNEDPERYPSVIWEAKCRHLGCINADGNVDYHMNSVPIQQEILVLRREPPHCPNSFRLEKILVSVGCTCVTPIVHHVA
Description: IL-17A AlphaLISA assay (block binding of IL-17A to its receptor IL-17RA). Particulars: compounds pre-incubated with the IL-17A for 24 h at room temperature; read-out: AlphaLISA pIC50 (converted). An outline of the steps:
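Compounds pre-incubated 24 h at RT (30 min where flagged) with human IL-17A (7.5 nM stock) before IL-17RA/Fc (5 nM stock), 90 min. Read by AlphaLISA via anti-Fc acceptor and biotin anti-IL-17A/streptavidin donor beads, 680/615 nm. 4-parameter fit; DMSO and 6 μM reference inhibitor as controls; pIC50.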
(Alpha assays give light when donor and acceptor beads are brought close together.)

In the case of `CCn1nccc1C(=O)N[C@H](C(=O)Nc1ccc(-c2cn[nH]c(=O)c2)c(F)c1)C(c1ccccc1)c1ccccc1` [Example 67, (S)-1-ethyl-N-(1-((3-fluoro-4-(6-oxo-1,6-dihydropyridazin-4-yl)phenyl)amino)-1-oxo-3,3-diphenylpropan-2-yl)-1H-pyrazole-5-carboxamide], the IC50 was 398 nM.
As for `Cn1nccc1C(=O)N[C@H](C(=O)Nc1ccc(-c2c[nH]c(=O)c3[nH]ccc23)c(F)c1)C(c1ccccc1)c1ccccc1` [Example 68, (S)—N-(1-((3-fluoro-4-(7-oxo-6,7-dihydro-1H-pyrrolo[2,3-c]pyridin-4-yl)phenyl)amino)-1-oxo-3,3-diphenylpropan-2-yl)-1-methyl-1H-pyrazole-5-carboxamide], the figure is 7.94 nM; as for `Cn1nccc1C(=O)N[C@H](C(=O)Nc1ccc(-c2c[nH]c(=O)c3[nH]cnc23)c(F)c1)C(c1ccccc1)c1ccccc1` [Example 69, (S)—N-(1-((3-fluoro-4-(4-oxo-4,5-dihydro-3H-imidazo[4,5-c]pyridin-7-yl)phenyl)amino)-1-oxo-3,3-diphenylpropan-2-yl)-1-methyl-1H-pyrazole-5-carboxamide], 79.4 nM; as for `Cn1nccc1C(=O)N[C@H](C(=O)Nc1ccc(-c2cn[nH]c(=O)c2)c(F)c1)C(c1ccccc1)c1ccccc1` [Example 70, (S)—N-(1-((3-fluoro-4-(6-oxo-1,6-dihydropyridazin-4-yl)phenyl)amino)-1-oxo-3,3-diphenylpropan-2-yl)-1-methyl-1H-pyrazole-5-carboxamide], 316 nM.
Take `Cn1nccc1C(=O)N[C@H](C(=O)Nc1ccc(-c2cccc(=O)n2C)c(F)c1)C(c1ccccc1)c1ccccc1` [Example 71, (S)—N-(1-((3-fluoro-4-(1-methyl-6-oxo-1,6-dihydropyridin-2-yl)phenyl)amino)-1-oxo-3,3-diphenylpropan-2-yl)-1-methyl-1H-pyrazole-5-carboxamide]: the IC50 is 15.8 nM.
In the case of `Cc1c(-c2ccc(NC(=O)[C@@H](NC(=O)c3ccnn3C)C(c3ccccc3)c3ccccc3)nc2)ccc(=O)n1C` [Example 72, (S)—N-(1-((1′,2′-dimethyl-6′-oxo-1′,6′-dihydro-[3,3′-bipyridin]-6-yl)amino)-1-oxo-3,3-diphenylpropan-2-yl)-1-methyl-1H-pyrazole-5-carboxamide], the IC50 is 79.4 nM.
In the case of `Cc1cncc(C)c1-c1ccc(NC(=O)[C@@H](NC(=O)c2ccnn2C)C(c2ccccc2)c2ccccc2)nc1` [Example 73, (S)—N-(1-((3′,5′-dimethyl-[3,4′-bipyridin]-6-yl)amino)-1-oxo-3,3-diphenylpropan-2-yl)-1-methyl-1H-pyrazole-5-carboxamide] it was 25.1 nM; in that of `Cc1[nH]ncc1-c1ccc(NC(=O)[C@@H](NC(=O)c2ccnn2C)C(c2ccccc2)c2ccccc2)cc1` [Example 74, (S)-1-methyl-N-(1-((4-(5-methyl-1H-pyrazol-4-yl)phenyl)amino)-1-oxo-3,3-diphenylpropan-2-yl)-1H-pyrazole-5-carboxamide], 31.6 nM.
In the case of `Cn1nccc1C(=O)N[C@H](C(=O)Nc1ccc(-c2cn(C)c(=O)c3[nH]ncc23)c(F)c1)C(c1ccccc1)c1ccccc1` [Example 75, (S)—N-(1-((3-fluoro-4-(6-methyl-7-oxo-6,7-dihydro-1H-pyrazolo[3,4-c]pyridin-4-yl)phenyl)amino)-1-oxo-3,3-diphenylpropan-2-yl)-1-methyl-1H-pyrazole-5-carboxamide] it was 31.6 nM; in that of `COc1ncc(-c2ccc(NC(=O)[C@@H](NC(=O)c3ccnn3C)C(c3ccccc3)c3ccccc3)cc2)c2cc[nH]c12` [Example 76, (S)—N-(1-((4-(7-methoxy-1H-pyrrolo[2,3-c]pyridin-4-yl)phenyl)amino)-1-oxo-3,3-diphenylpropan-2-yl)-1-methyl-1H-pyrazole-5-carboxamide], 631 nM.
As for `Cn1nccc1C(=O)N[C@H](C(=O)Nc1ccc(-c2cccc(=O)[nH]2)c(F)c1)C(c1ccccc1)c1ccccc1` [Example 77, (S)—N-(1-((3-fluoro-4-(6-oxo-1,6-dihydropyridin-2-yl)phenyl)amino)-1-oxo-3,3-diphenylpropan-2-yl)-1-methyl-1H-pyrazole-5-carboxamide], the IC50 is 126 nM.
Consider `Cn1nccc1C(=O)N[C@H](C(=O)Nc1ccc(-c2ccncc2CC(=O)N2CCCC2)cc1)C(c1ccccc1)c1ccccc1` [Example 78, (S)-1-methyl-N-(1-oxo-1-((4-(3-(2-oxo-2-(pyrrolidin-1-yl)ethyl)pyridin-4-yl)phenyl)amino)-3,3-diphenylpropan-2-yl)-1H-pyrazole-5-carboxamide], for which the IC50 is 25.1 nM.
In the case of `Cn1nccc1C(=O)N[C@H](C(=O)Nc1ccc(-c2cc[n+]([O-])cc2CC(=O)N2CCCC2)cc1)C(c1ccccc1)c1ccccc1` [Example 79, (S)-4-(4-(2-(1-methyl-1H-pyrazole-5-carboxamido)-3,3-diphenylpropanamido)phenyl)-3-(2-oxo-2-(pyrrolidin-1-yl)ethyl)pyridine 1-oxide] it was 251 nM; in that of `Cn1nccc1C(=O)N[C@H](C(=O)Nc1ccc(-c2cc(=O)[nH]cn2)c(F)c1)C(c1ccccc1)c1ccccc1` [Example 80, (S)—N-(1-((3-fluoro-4-(6-oxo-1,6-dihydropyrimidin-4-yl)phenyl)amino)-1-oxo-3,3-diphenylpropan-2-yl)-1-methyl-1H-pyrazole-5-carboxamide], 316 nM; in that of `Cn1nccc1C(=O)N[C@H](C(=O)Nc1ccc(C2=CCOCC2)cc1)C(c1ccccc1)c1ccccc1` [Example 81, (S)—N-(1-((4-(3,6-dihydro-2H-pyran-4-yl)phenyl)amino)-1-oxo-3,3-diphenylpropan-2-yl)-1-methyl-1H-pyrazole-5-carboxamide], 12.6 nM.
Turning to `COc1cnccc1-c1ccc(NC(=O)C(NC(=O)c2ccnn2C)C2c3ccccc3-c3ccccc32)cc1` (stereo not shown) [Example 82, N-(1-(9H-fluoren-9-yl)-2-((4-(3-methoxypyridin-4-yl)phenyl)amino)-2-oxoethyl)-1-methyl-1H-pyrazole-5-carboxamide], the IC50 is 25.1 nM.
In the case of `Cc1c(-c2ccc(NC(=O)[C@@H](NC(=O)c3ccnn3C)[C@H]3CC[C@H](C)CC3)cc2F)ccc(=O)n1C` [Example 83, N—((S)-2-((4-(1,2-Dimethyl-6-oxo-1,6-dihydropyridin-3-yl)-3-fluorophenyl)amino)-1-((1r,4S)-4-methylcyclohexyl)-2-oxoethyl)-1-methyl-1H-pyrazole-5-carboxamide] it was 63.1 nM; in that of `Cc1n[nH]c(C)c1-c1ccc(NC(=O)[C@@H](NC(=O)c2ccnn2C)[C@H]2CC[C@H](C)CC2)cc1` [Example 84, N—((S)-2-((4-(3,5-Dimethyl-1H-pyrazol-4-yl)phenyl)amino)-1-((1r,4S)-4-methylcyclohexyl)-2-oxoethyl)-1-methyl-1H-pyrazole-5-carboxamide], 31.6 nM.
As to `Cn1nccc1C(=O)N[C@H](C(=O)Nc1ccc(-c2c[nH]c(=O)c3[nH]ccc23)cc1)[C@H]1CC[C@H](C)CC1` [Example 85, 1-Methyl-N—((S)-1-((1r,4S)-4-methylcyclohexyl)-2-oxo-2-((4-(7-oxo-6,7-dihydro-1H-pyrrolo[2,3-c]pyridin-4-yl)phenyl)amino)ethyl)-1H-pyrazole-5-carboxamide], the IC50 was 63.1 nM.
In the case of `Cn1nccc1C(=O)N[C@H](C(=O)Nc1ccc(-c2ccncc2CC(=O)N2CCCC2)cc1)[C@H]1CC[C@H](C)CC1` [Example 86, 1-Methyl-N—((S)-1-((1r,4S)-4-methylcyclohexyl)-2-oxo-2-((4-(3-(2-oxo-2-(pyrrolidin-1-yl)ethyl)pyridin-4-yl)phenyl)amino)ethyl)-1H-pyrazole-5-carboxamide] it was 251 nM; in that of `Cn1nccc1C(=O)N[C@H](C(=O)Nc1ccc(-c2cc[nH]c(=O)c2)cc1)[C@H]1CC[C@H](C)CC1` [Example 87, 1-Methyl-N—((S)-1-((1r,4S)-4-methylcyclohexyl)-2-oxo-2-((4-(2-oxo-1,2-dihydropyridin-4-yl)phenyl)amino)ethyl)-1H-pyrazole-5-carboxamide], 501 nM; in that of `Cn1nccc1C(=O)N[C@H](C(=O)Nc1ccc(-c2cccc3nccn23)cc1)[C@H]1CC[C@H](C)CC1` [Example 88, N—((S)-2-((4-(Imidazo[1,2-a]pyridin-5-yl)phenyl)amino)-1-((1r,4S)-4-methylcyclohexyl)-2-oxoethyl)-1-methyl-1H-pyrazole-5-carboxamide], 398 nM.
In the case of `Cc1cncc(C)c1-c1ccc(NC(=O)[C@@H](NC(=O)c2ccnn2C)[C@H]2CC[C@H](C)CC2)nc1` [Example 90, N—((S)-2-((3′,5′-Dimethyl-[3,4′-bipyridin]-6-yl)amino)-1-((1r,4S)-4-methylcyclohexyl)-2-oxoethyl)-1-methyl-1H-pyrazole-5-carboxamide] it was 63.1 nM.
In the case of `CCn1nccc1C(=O)N[C@H](C(=O)Nc1ccc(-c2ccc(=O)n(C)c2C)cn1)[C@H]1CC[C@H](C)CC1` [Example 91, N—((S)-2-((1′,2′-Dimethyl-6′-oxo-1′,6′-dihydro-[3,3′-bipyridin]-6-yl)amino)-1-((1r,4S)-4-methylcyclohexyl)-2-oxoethyl)-1-ethyl-1H-pyrazole-5-carboxamide] it was 251 nM.
In the case of `CCn1nccc1C(=O)N[C@H](C(=O)Nc1ccc(-c2c(C)cncc2C)cn1)[C@H]1CC[C@H](C)CC1` [Example 92, N—((S)-2-((3′,5′-Dimethyl-[3,4′-bipyridin]-6-yl)amino)-1-((1r,4S)-4-methylcyclohexyl)-2-oxoethyl)-1-ethyl-1H-pyrazole-5-carboxamide], the IC50 was 20 nM.
